Tests used:
Thromboxane-A synthase = target: T1, Thromboxane-A synthase (Homo sapiens, UniProt P24557); assay: biochemical; assay type: tissue-based, Platelet; conditions: platelet;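 also: enzyme inhibition assay with PGH2 supplied as substrate; in other assays of this panel Not Active means under 50% inhibition at 10 µM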
T1 sequence (P24557 whole entry): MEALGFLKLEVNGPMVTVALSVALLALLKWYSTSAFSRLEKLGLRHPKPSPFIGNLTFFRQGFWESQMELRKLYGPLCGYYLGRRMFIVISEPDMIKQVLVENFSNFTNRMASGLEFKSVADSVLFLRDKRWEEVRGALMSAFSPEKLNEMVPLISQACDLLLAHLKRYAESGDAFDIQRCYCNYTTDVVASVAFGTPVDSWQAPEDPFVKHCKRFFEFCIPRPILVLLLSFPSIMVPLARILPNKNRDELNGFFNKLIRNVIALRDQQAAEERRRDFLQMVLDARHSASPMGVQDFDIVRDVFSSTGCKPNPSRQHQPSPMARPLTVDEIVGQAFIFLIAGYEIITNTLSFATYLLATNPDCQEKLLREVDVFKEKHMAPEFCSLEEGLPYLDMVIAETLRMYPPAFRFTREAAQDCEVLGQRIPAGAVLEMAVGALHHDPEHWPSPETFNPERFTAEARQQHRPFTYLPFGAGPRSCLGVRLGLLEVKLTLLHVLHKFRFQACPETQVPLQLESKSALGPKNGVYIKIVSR

[1] = target: T2, 5-hydroxytryptamine receptor 1A (Rattus norvegicus, UniProt P19327); assay type: cell membranes, CHO-K1, Membrane; conditions: cho-k1; also: in other assays of this panel Not Active means under 50% inhibition at 10 µM
T2 sequence (P19327 whole entry): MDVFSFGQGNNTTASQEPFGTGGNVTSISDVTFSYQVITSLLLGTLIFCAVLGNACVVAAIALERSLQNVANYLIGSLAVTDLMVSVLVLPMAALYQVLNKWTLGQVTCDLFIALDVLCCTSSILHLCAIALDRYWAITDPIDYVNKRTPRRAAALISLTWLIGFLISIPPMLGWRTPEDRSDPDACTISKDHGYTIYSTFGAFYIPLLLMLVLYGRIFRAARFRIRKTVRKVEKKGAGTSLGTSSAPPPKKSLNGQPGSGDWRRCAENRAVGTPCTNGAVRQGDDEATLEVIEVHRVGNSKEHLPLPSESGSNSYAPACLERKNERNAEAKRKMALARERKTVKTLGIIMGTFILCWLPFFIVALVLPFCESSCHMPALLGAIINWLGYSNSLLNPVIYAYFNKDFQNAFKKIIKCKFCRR

[2] = target: C-C chemokine receptor type 5 (Homo sapiens, UniProt P51681); assay type: cell membranes, Membrane; conditions: hek293; also: in other assays of this panel Not Active means under 50% inhibition at 10 µM
[3] = DRUGMATRIX: Glutamate, AMPA radioligand binding (ligand: [3H] AMPA); assay type: cell membranes, Rattus norvegicus, Wistar, Cerebral cortex, Membrane; conditions: Not Active = under 50% inhibition at 10 µM
[4] = DRUGMATRIX: Potassium Channel [KATP] radioligand binding (ligand: [3H] Glyburide); assay type: cell membranes, Membrane; conditions: hit-t15; Not Active = under 50% inhibition at 10 µM
Progesterone receptor = target: T3, Progesterone receptor (Bos taurus, UniProt Q690N0); assay: DRUGMATRIX: Progesterone radioligand binding (ligand: [3H] R-5020); assay type: tissue-based, Uterus; conditions: Not Active = under 50% inhibition at 10 µM
T3 sequence (Q690N0 whole entry): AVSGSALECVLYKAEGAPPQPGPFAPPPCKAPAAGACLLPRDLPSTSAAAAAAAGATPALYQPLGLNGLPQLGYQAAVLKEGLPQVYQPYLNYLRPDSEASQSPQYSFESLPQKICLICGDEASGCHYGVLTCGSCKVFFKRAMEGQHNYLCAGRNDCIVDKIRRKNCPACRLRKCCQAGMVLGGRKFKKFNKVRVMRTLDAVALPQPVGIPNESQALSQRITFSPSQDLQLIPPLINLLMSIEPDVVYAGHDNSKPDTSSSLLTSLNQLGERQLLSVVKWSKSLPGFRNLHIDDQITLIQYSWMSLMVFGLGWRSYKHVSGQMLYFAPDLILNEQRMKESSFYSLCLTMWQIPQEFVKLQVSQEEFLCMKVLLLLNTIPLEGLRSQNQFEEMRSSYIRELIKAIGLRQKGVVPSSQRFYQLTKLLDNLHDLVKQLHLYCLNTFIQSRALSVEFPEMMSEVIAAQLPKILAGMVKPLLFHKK

Chain of C-C chemokine receptor type 5 (P51681 whole entry): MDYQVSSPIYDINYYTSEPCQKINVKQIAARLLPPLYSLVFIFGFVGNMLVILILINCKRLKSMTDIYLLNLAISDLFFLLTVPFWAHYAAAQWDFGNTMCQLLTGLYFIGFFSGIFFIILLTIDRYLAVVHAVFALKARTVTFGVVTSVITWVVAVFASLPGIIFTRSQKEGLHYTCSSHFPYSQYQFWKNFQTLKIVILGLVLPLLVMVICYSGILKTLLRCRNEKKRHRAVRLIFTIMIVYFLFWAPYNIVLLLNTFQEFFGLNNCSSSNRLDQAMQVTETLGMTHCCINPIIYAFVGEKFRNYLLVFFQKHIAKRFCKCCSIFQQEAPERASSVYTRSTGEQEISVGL

CCC1(CCC(C)C)C(=O)NC(=O)NC1=O [AMOBARBITAL]
Not Active: IC50 (Thromboxane-A synthase) | IC50 [1] | IC50 [2] | IC50 [3] | Ki [3] | IC50 [4] | Ki [4] | IC50 (Progesterone receptor)

AURANOFIN
Not Active: IC50 (Thromboxane-A synthase) | Ki (Thromboxane-A synthase) | IC50 [1] | Ki [1] | IC50 [2] | Ki [2] | IC50 [3] | Ki [3] | IC50 [4] | Ki [4] | IC50 (Progesterone receptor) | Ki (Progesterone receptor)

O=C/C=C/c1ccccc1
Not Active: IC50 (Thromboxane-A synthase) | IC50 [1] | IC50 [2] | IC50 [3] | Ki [3] | IC50 [4] | Ki [4] | IC50 (Progesterone receptor)

C=CCc1ccc(O)c(OC)c1 [EUGENOL]
Not Active: IC50 (Thromboxane-A synthase) | IC50 [1] | IC50 [2] | IC50 [3] | Ki [3] | IC50 [4] | Ki [4] | IC50 (Progesterone receptor)

COC1=C(OC)C(=O)C(CCCCCCCCCCO)=C(C)C1=O [IDEBENONE]
Not Active: IC50 (Thromboxane-A synthase) | IC50 [1] | IC50 [2] | IC50 [3] | Ki [3] | IC50 [4] | Ki [4] | IC50 (Progesterone receptor)

Oc1cccc(O)c1O [PYROGALLOL]
Not Active: IC50 (Thromboxane-A synthase) | IC50 [1] | IC50 [2] | IC50 [3] | Ki [3] | IC50 [4] | Ki [4] | IC50 (Progesterone receptor)

C[C@]12C=CC(=O)C=C1CC[C@@H]1[C@@H]2[C@@H](O)C[C@@]2(C)[C@H]1CC[C@]2(O)C(=O)CO [PREDNISOLONE]
Not Active: IC50 (Thromboxane-A synthase) | IC50 [1] | IC50 [2] | IC50 [3] | Ki [3] | IC50 [4] | Ki [4] | IC50 (Progesterone receptor)

CC(=O)[C@H]1[C@H](C#N)C[C@H]2[C@@H]3CC=C4C[C@@H](O)CC[C@]4(C)[C@H]3CC[C@@]21C [PREGNENOLONE CARBONITRILE]
Not Active: IC50 (Thromboxane-A synthase) | IC50 [1] | IC50 [2] | IC50 [3] | Ki [3] | IC50 [4] | Ki [4] | IC50 (Progesterone receptor)

CC(C(=O)O)c1cccc(Oc2ccccc2)c1 (stereo not drawn) [FENOPROFEN]
Not Active: IC50 (Thromboxane-A synthase) | IC50 [1] | IC50 [2] | IC50 [3] | Ki [3] | IC50 [4] | Ki [4] | IC50 (Progesterone receptor)

NNc1nncc2ccccc12 [HYDRALAZINE]
Not Active: IC50 (Thromboxane-A synthase) | IC50 [1] | IC50 [2] | IC50 [3] | Ki [3] | IC50 [4] | Ki [4] | IC50 (Progesterone receptor)

O=C1O[C@H]([C@@H](O)CO)C(O)=C1O [ASCORBIC ACID]
Not Active: IC50 (Thromboxane-A synthase) | IC50 [1] | IC50 [2] | IC50 [3] | Ki [3] | IC50 [4] | Ki [4] | IC50 (Progesterone receptor)

NC(=O)C[S+]([O-])C(c1ccccc1)c1ccccc1 (stereo not drawn) [MODAFINIL]
Not Active: IC50 (Thromboxane-A synthase) | IC50 [1] | IC50 [2] | IC50 [3] | Ki [3] | IC50 [4] | Ki [4] | IC50 (Progesterone receptor)

CCN(CC)CCOCCC1=CCC2CC1C2(C)C (stereo not drawn) [MYRTECAINE]
Not Active: IC50 (Thromboxane-A synthase) | IC50 [1] | IC50 [2] | IC50 [3] | Ki [3] | IC50 [4] | Ki [4] | IC50 (Progesterone receptor)
